From ChEMBL document CHEMBL1131600 (J Med Chem, 1998)
pIC50: −log10 of the molar value.

Legend:
Format in all cases: functional, organism-based
Plasmodium falciparum [1] = experiment: In vitro antimalarial activity against chloroquine-sensitive Plasmodium falciparum NF54
Plasmodium falciparum [2] = experiment: In vitro antimalarial activity against chloroquine-sensitive Plasmodium falciparum NF54 in C4beta-stannylmethyl trioxanes
Plasmodium falciparum [3] = experiment: In vitro antimalarial activity against chloroquine-sensitive Plasmodium falciparum NF54 in C4alpha-alkylated trioxanes

CO[C@H]1O[C@@]2(C)OOC13[C@H](CCOP(=O)(Oc1ccccc1)Oc1ccccc1)CCC[C@@H]3C[C@@H]2C
pIC50 (Plasmodium falciparum [1]; Plasmodium falciparum): 8.16

CO[C@H]1O[C@]2(C)CC[C@H]3CCC[C@@H](CCO)C31OO2
pIC50 (Plasmodium falciparum [1]; Plasmodium falciparum): 6.92

CO[C@H]1O[C@@]2(C)OOC13[C@H](CCO)CCC[C@@H]3CC2Cc1ccccc1 (some centres undefined)
pIC50 (Plasmodium falciparum [2]; Plasmodium falciparum): 8.08
pIC50 (Plasmodium falciparum [3]): 5.77

CO[C@H]1O[C@@]2(C)OOC13CCCC[C@@H]3CC2CO (some centres undefined)
pIC50 (Plasmodium falciparum [2]; Plasmodium falciparum): 6.64
pIC50 (Plasmodium falciparum [3]): < 5.60

CO[C@H]1O[C@]2(C)CC[C@H]3CCC[C@@H](CCOCc4ccccc4)C31OO2
pIC50 (Plasmodium falciparum [1]; Plasmodium falciparum): 7.60

CO[C@H]1O[C@@]2(C)OOC13CCCC[C@@H]3CC2Cc1ccc(COCc2ccc(F)cc2)cc1 (some centres undefined)
pIC50 (Plasmodium falciparum [1]; Plasmodium falciparum): 6.62

CO[C@H]1O[C@@]2(C)OOC13CCCC[C@@H]3C[C@@H]2CO
pIC50 (Plasmodium falciparum [1]; Plasmodium falciparum): 6.64

CO[C@H]1O[C@@]2(C)OOC13CCCC[C@@H]3CC2Cc1ccc(CO)cc1 (some centres undefined)
pIC50 (Plasmodium falciparum [2]; Plasmodium falciparum): 6.22
pIC50 (Plasmodium falciparum [3]): < 5.60

CO[C@H]1O[C@@]2(C)OOC13CCCC[C@@H]3C[C@@H]2Cc1ccc(CO)cc1
pIC50 (Plasmodium falciparum [1]; Plasmodium falciparum): 6.22

CO[C@H]1O[C@@]2(C)OOC13[C@H](CCO)CCC[C@@H]3CC2C (some centres undefined)
pIC50 (Plasmodium falciparum [2]; Plasmodium falciparum): 8.11
pIC50 (Plasmodium falciparum [3]): 5.89

CO[C@H]1O[C@@]2(C)OOC13CCCC[C@@H]3CC2c1ccccc1 (some centres undefined)
pIC50 (Plasmodium falciparum [2]; Plasmodium falciparum): 5.70
pIC50 (Plasmodium falciparum [3]): < 5.60

CO[C@H]1O[C@@]2(C)OOC13[C@H](CCOCc1ccccc1)CCC[C@@H]3C[C@@H]2C
pIC50 (Plasmodium falciparum [1]; Plasmodium falciparum): 7.96

CO[C@H]1O[C@]2(C)CC[C@H]3CCC[C@@H](CCOCc4ccc(F)cc4)C31OO2
pIC50 (Plasmodium falciparum [1]; Plasmodium falciparum): 7.51

CO[C@H]1O[C@@]2(C)OOC13[C@H](CCOCc1ccc(F)cc1)CCC[C@@H]3C[C@@H]2C
pIC50 (Plasmodium falciparum [1]; Plasmodium falciparum): 7.89

CO[C@H]1O[C@@]2(C)OOC13CCCC[C@@H]3C[C@@H]2COCc1ccc(F)cc1
pIC50 (Plasmodium falciparum [1]; Plasmodium falciparum): 7.72

CO[C@H]1O[C@@]2(C)OOC13CCCC[C@@H]3CC2Cc1ccccc1 (some centres undefined)
pIC50 (Plasmodium falciparum [2]; Plasmodium falciparum): 6.51
pIC50 (Plasmodium falciparum [3]): < 5.60

CO[C@H]1O[C@@]2(C)OOC13[C@H](CCO)CCC[C@@H]3CC2C[Si](C)(C)C (some centres undefined)
pIC50 (Plasmodium falciparum [2]; Plasmodium falciparum): 6.62
pIC50 (Plasmodium falciparum [3]): < 5.60

CO[C@H]1O[C@@]2(C)OOC13[C@H](CCO)CCC[C@@H]3C[C@@H]2C
pIC50 (Plasmodium falciparum [1]; Plasmodium falciparum): 8.11

2-((2S,6R,9S,12S)-12-Methoxy-9-methyl-8-trimethylstannanylmethyl-10,11,13-trioxa-tricyclo[7.2.2.0 1,6 ]tridec-2-yl)-ethanol
pIC50 (Plasmodium falciparum [2]): < 5.60

((6R,9S,12S)-12-Methoxy-9-methyl-10,11,13-trioxa-tricyclo[7.2.2.01,6]tridec-8-ylmethyl)-trimethyl-stannane
pIC50 (Plasmodium falciparum [1]): < 5.60

((6R,9S,12S)-12-Methoxy-9-methyl-10,11,13-trioxa-tricyclo[7.2.2.01,6]tridec-8-ylmethyl)-triphenyl-stannane
pIC50 (Plasmodium falciparum [1]): < 5.60

Tributyl-((6R,9S,12S)-12-methoxy-9-methyl-10,11,13-trioxa-tricyclo[7.2.2.01,6]tridec-8-ylmethyl)-stannane
pIC50 (Plasmodium falciparum [1]): < 5.60
